In patent publication US10166246B2, “TGR5 agonist complexes for treating diabetes and cancer” (City of Hope, priority 2014, dated 2019):
Entries after “also recorded” stand apart in the source; their conditions may differ.

Legend:
TGR5 [1] = biological target: T1, TGR5 (Homo sapiens, UniProt Q8TDU6); assay: cAMP assay in HEK293 overexpressing TGR5; format: cell-based; design: expressed in transfected cells; host or cells: HEK293 overexpressing TGR5; settings: HEK293 cells, in vitro
T1 sequence (Q8TDU6 1-330): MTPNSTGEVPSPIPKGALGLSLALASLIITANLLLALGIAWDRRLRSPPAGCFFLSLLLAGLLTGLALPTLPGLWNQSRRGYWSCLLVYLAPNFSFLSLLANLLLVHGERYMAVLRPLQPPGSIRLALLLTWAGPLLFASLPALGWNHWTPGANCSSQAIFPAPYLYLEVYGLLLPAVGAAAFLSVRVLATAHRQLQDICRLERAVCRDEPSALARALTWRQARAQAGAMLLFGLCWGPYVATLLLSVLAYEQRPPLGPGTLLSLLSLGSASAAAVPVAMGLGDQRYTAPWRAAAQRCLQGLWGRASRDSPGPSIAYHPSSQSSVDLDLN
Protocol: (§1) Data analysis to determine EC50 values was performed with GraphPad Prism software using a cAMP standard curve and sigmoidal dose-response (variable slope) equation based on dose-response curves with tested compounds.
as §1

[2] = single oral dose; cited from earlier work
[3] = in vivo; cited from earlier work
TGR5 [4] = biological target: T1, TGR5; settings: HEK293 cells with human TGR5, pCRE-Luc; 0.1-50 μM test concentrations
Protocol: HEK293 overexpressing TGR5 cells were transfected 100 ng pCRE-luc reporter along with 10 ng pCMV-beta-galactosidase by HiPerfect (Qiagen).
Complexes were evaluated for their ability to activate TGR5 at 0.1, 0.5, 1, 5.0, 10, 30, and 50 μM test concentrations.
Cell Culture: HEK293 and HEK293-TGR5 overexpressing cells were cultured in high glucose Dulbecco's modified Eagle's medium (DMEM, CELLGRO®, Manassas, Va.) with L-glutamine supplemented with 10% (vol/vol) heat-inactivated fetal bovine serum (Gemini Bio-Products, West Sacramento, Calif.). TGR5-overexpressing HEK293 cells were maintained in G418-containing media until plating. Cells were plated in 24-well plates (5×10^5 cells/well) 24 h before transfection. Prior to transfection, cells were rinsed with PBS, and media was replaced with DMEM without phenol red supplemented with 10% super-stripped FBS.
TGR5 and FXR Luciferase Assay: To evaluate TGR5 activity of compounds, cells were transfected 100 ng pCRE-luc reporter along with pCMV-galactosidase (10 ng) as an internal control for normalization of transfection efficiency. Plasmids were complexed with 2 mL of FUGENE® 6 reagent (Promega, Madison, Wis.) in OPTIMEM® (Invitrogen, Carlsbad, Calif.) and cells were transfected for 18 h. The following day, cells were treated with vehicle and appropriate ligand as indicated. […]

db/db mice = assay: 5-week treatment of diabetic db/db mice (body weight, fasting glucose, liver and kidney weight, HbA1c); format: in vivo, mouse; settings: for significance of the effect in body weight loss: 30 mg/kg BW (0.057 mmol), 5 weeks
Protocol: FIG. 8 Effect on body weight of administration of ligand and complex administered […] for 5 weeks in db/db mice (seven per group), with vehicle controls.
For each experiment, there were 8 groups of mice representing the different treatments. […] Eleven-week old male normal and high-fat fed C57BL/6J mice and 7-week old male B6.BKS-Lepr^db (db/db) mice (The Jackson Laboratory, Bar Harbor, Me.) were acclimatized for at least one week on a 12-hour light/dark cycle at 68-72° F., then fed either a standard (10% fat kcal) or high-fat diet containing 60 kcal % fat (Research Diets, Inc., New Brunswick, N.J.) for the duration of the study. All animals were access to their respective diets and water ad libitum. […] For each group, each mouse was given the drugs via i.p. injection, three times a week (Monday, Wednesday, Friday) for a total duration of 5 weeks. Before, and in the course of treatment, body weight, water and food consumption (by weighing before and after weights of water bottles and leftover food in individual cages) were measured 2×per week, while blood glucose measurements were conducted weekly via tail-bleeding while on physical restraint using disposable cone-shaped plastic holders (Kent Scientific). Various tissues (liver, skeletal muscles and adipose tissues) and blood (for lipid, insulin and glucose measurements), were collected and analyzed at the end of the experiment. Before termination of the study, glucose tolerance tests were performed on each mouse on the last week of treatment. For the glucose tolerance test (GTT), after an overnight fast, mice were injected intraperitoneally with glucose (2 g/kg body weight). […] Mice were euthanized by CO2 asphyxiation according to the Association for Assessment and Accreditation of Laboratory Animal Care International guidelines. The different experimental groups had at least 8 animals each.

## CN(C)C(=N)NC(=N)N [Metformin, N,N-dimethylbiguanidine]
TGR5 [1]
  direct activation of TGR5 to induce cAMP formation: not a ligand for the TGR5; also recorded: did not directly activate TGR5
[2]
  time until undetectable in blood plasma: ≤ 24 h
[3]
  decrease of the level of HbA1c: 1-2%

## Metformin-OA [DY310]
TGR5 [4]
  potency in luciferase assays against TGR5 compared to the native TGR5 agonist: greater potency in luciferase assays than oleanolic acid

## metformin-6eCDCA complex [DY305]
db/db mice; male db/db mice
  significance of the effect in body weight loss: not significant
db/db mice; male db/db mice, daily for 5 weeks
  effect on body weight: effective in body weight loss

## metformin-6eUDCA complex [DY306]
db/db mice; db/db mice
  effect on increase of HbA1c: dose dependently blocked the increase of HbA1c
db/db mice; db/db mouse model
  glycemic control: improved glycemic control
db/db mice; male db/db mice
  significance of the effect in body weight loss: not significant
